Measured values from patent publication US8324194B2, “Combination therapy for the treatment of cancer” (Incyte Corporation, priority 2005, dated 2012).

Columns and labels:
[1] = system: BT-474 human breast cancer xenografts; assay: Growth of subcutaneous BT-474 breast cancer xenograft in mice; format: in vivo; details: BT-474 xenograft; for inhibited tumor cell growth over the control group: nu/nu mice, Compound 1 60 mg/kg/day SC pump for 14 days, fulvestrant 5 mg SC once per week for four weeks, mean tumor volume vs control group (a); for tumor growth delay (TGD, T-C) to 500 cubic mm by linear regression analysis of tumor growth rate: Compound 1 60 mg/kg/day for 14 days, fulvestrant 5 mg weekly x4, projected time
Procedure: Human breast cancer cell line BT-474 was obtained from American Type Tissue Culture Collection (ATCC, Manassas, Va.). Cells were routinely maintained in media recommended by the ATCC with slight modifications. Cells were kept at 37° C. in a humidified incubator supplied with 5% CO2. BT-474 cells were grown in RPMI 1640 (Invitrogen) supplemented with 10% fetal bovine serum (FBS), 0.01 mg/ml bovine insulin, 10 mM HEPES and 0.1 mM non-essential amino acids.
Animal studies were performed under Animal Welfare Regulation Guidelines in a facility accredited by the Association for the Assessment and Accreditation of Laboratory Animal Care (AAALAC). Balb/c or CD-1 nu/nu mice (Charles River, Wilmington, Mass.) were injected subcutaneously with logarithmically growing cells suspended in either serum free culture media, or a 1:1 mixture media and Matrigel™ (BD Biosciences). The tumor models required implantation (on the same day or one day prior to cell inoculation) of estradiol pellets (17-βestradiol, 0.72 mg/pellet, 60 day release; Innovative Research of American, Sarasota, Fla.). The time in days after injection of the tumor cells into the mice was measured as “days post-inoculation”.
Subcutaneous implantation of osmotic pumps (obtained from Alzet, Cupertino, Calif.) was performed under isofluorane anesthesia following manufacturer's protocol. Subcutaneous pumps were used to deliver a solution of Compound 1, or its inert solvent. Fulvestrant, or its inert solvent, was delivered by subcutaneous injection on the dorsal flanks of the animals. […] Treatment was usually initiated when mean tumor volumes were approximately 150 mm^3 at the beginning of treatment. Ten test animals were included in each Treatment group, (a)-(d).
Tumor size was measured and used to calculate tumor volume for a period of time following the injection of the tumor cells into the mice. Tumor size was measured by using a caliper to measure the length (l) and width (w) of tumors to calculate an approximate volume ((l×w^2)/2). These tumor size measurements and tumor volume calculations were recorded relative to the number of days post-inoculation of the mice with the tumor cells. […] Mean tumor volume was calculated based on the tumor volumes for the ten test animals in each treatment group.
(§1) Treatment group (a) was the control group of test animals. […] Tumor size was measured for each test animal as described above and recorded as a function of the number of days post-inoculation of the mice with the BT-474 breast cancer cells. Mean tumor volume was then calculated for treatment group (a) and plotted against the number of days post-inoculation as shown in FIG. 2. […]

[2] = system: MCF-7 human breast cancer xenografts; assay: Growth of subcutaneous MCF-7 breast cancer xenograft in mice; format: in vivo; details: MCF-7 xenograft; for inhibited tumor cell growth over the control group: nu/nu mice, fulvestrant 5 mg SC once per week for four weeks, mean tumor volume vs control group (a)
Procedure: Human breast cancer cell line MCF-7 was obtained from American Type Tissue Culture Collection (ATCC, Manassas, Va.). Cells were routinely maintained in media recommended by the ATCC with slight modifications. Cells were kept at 37° C. in a humidified incubator supplied with 5% CO2. MCF-7 cells were kept in Eagle's minimal essential medium (ATCC) supplemented with 10% FBS and 0.01 mg/ml bovine insulin.
Animal studies were performed under Animal Welfare Regulation Guidelines in a facility accredited by the Association for the Assessment and Accreditation of Laboratory Animal Care (AAALAC). Balb/c or CD-1 nu/nu mice (Charles River, Wilmington, Mass.) were injected subcutaneously with logarithmically growing cells suspended in either serum free culture media, or a 1:1 mixture media and Matrigel™ (BD Biosciences). The tumor models required implantation (on the same day or one day prior to cell inoculation) of estradiol pellets (17-β estradiol, 0.72 mg/pellet, 60 day release; Innovative Research of American, Sarasota, Fla.). The time in days after injection of the tumor cells into the mice was measured as “days post-inoculation”.
Subcutaneous implantation of osmotic pumps (obtained from Alzet, Cupertino, Calif.) was performed under isofluorane anesthesia following manufacturer's protocol. Subcutaneous pumps (hereinafter “SC pumps”) were used to deliver a solution of Compound 1, or its inert solvent. Fulvestrant, or its inert solvent, was delivered by subcutaneous injection on the dorsal flanks of the animals. Treatment was usually initiated when mean tumor volumes were approximately 150 mm^3 at the beginning of treatment. Ten test animals were included in each treatment group, (a)-(d).
Tumor size was measured and used to calculate tumor volume for a period of time following the injection of the tumor cells into the mice. Tumor size was measured by using a caliper to measure the length (1) and width (w) of tumors to calculate an approximate volume ((l×w^2)/2). These tumor size measurements and tumor volume calculations were recorded relative to the number of days post-inoculation of the mice with the tumor cells. The frequency of the tumor size measurements varied depending on how quickly the tumors grew in size, with more frequent measurements being taken when the tumors grew quickly. Mean tumor volume was calculated based on the tumor volumes for the ten test animals in each treatment group.
as §1, with “MCF-7” for “BT-474”, “1.” for “2.”

[3] = Compound 1 60 mg/kg/day SC pump for 14 days

SMILES | inhibited tumor cell growth over the control group [1] [%] | tumor growth delay (TGD, T-C) to 500 cubic mm by linear regression analysis of tumor growth rate [1] [days] | inhibited tumor cell growth over the control group [2, 3] [%] | tumor growth delay (TGD, T-C) to 1000 cubic mm, real, not calculated [2, 3] [days] | calculated tumor growth delay (TGD, T-C) to 1000 cubic mm by linear regression analysis of tumor growth curves ([2]; fulvestrant 5 mg SC weekly x4, alone or with Compound 1 60 mg/kg/day for 14 days, projected time) [days]
COC(=O)N1CC2(CC2)C[C@H](C(=O)NO)[C@H]1C(=O)N1CCN(c2ccccc2)CC1 [Compound 1, methyl (6S,7S)-7-[(hydroxyamino)carbonyl]-6-[(4-phenylpiperazin-1-yl)carbonyl]-5-azaspiro[2.5]octane-5-carboxylate] | 33 | 19 | 46 | 32 | –
C[C@]12CC[C@@H]3c4ccc(O)cc4C[C@@H](CCCCCCCCC[S+]([O-])CCCC(F)(F)C(F)(F)F)[C@H]3[C@@H]1CC[C@@H]2O (some centres unmarked) [fulvestrant] | 46 | 54 | 52 | – | 63
